Article PMC9200803, “Design, synthesis, and biological evaluation of tetrahydroquinolinones and tetrahydroquinolines with anticancer activity” (Scientific Reports, 2022)

What was measured:
[1] = test system: HCT-116 cells; assay: Cell cycle distribution analysis by flow cytometry (PI staining); type: cell-based, human; conditions: HCT-116, 24 to 72 h, vs vehicle
Protocol: Based on their antiproliferative activity, 20d and 19b were evaluated for their effect on cell cycle phase distribution and DNA content by flow cytometry.
HCT-116 and A-549 cells were seeded into culture plates and allowed to attach overnight. Then, cells were incubated with the investigated compounds for the indicated time points. After incubation, the harvested cells were fixed with ice-cold 75% ethanol and stored overnight at − 20 °C. Next, cells were rehydrated with PBS in ice for 15 min and washed twice in PBS. Finally, cells were stained with […] propidium iodide (PI) and […] RNase A in PBS for 30 min at room temperature. Cell cycle distribution was determined using a Guava easyCyte 8 flow cytometer (Merck Millipore) and FlowJo v10 software.

[2] = test system: HCT-116 cells; assay: ROS level, H2DCFDA probe, flow cytometry, HCT-116; type: cell-based
Protocol: Reactive oxygen species (ROS) affect the cellular redox homeostasis resulting in extensive and irreparable damage and ultimately cell death. Anticancer compounds with cytotoxic properties often cause disturbances in the redox state in cells. Therefore, we performed a time-dependent kinetic analysis of the intracellular ROS level in colon cancer cell lines after treatment with 20d.
The […] ROS levels were determined using an H2DCFDA (2′,7′-dichlorodihydrofluorescein diacetate) probe (Thermo Fisher) following the manufacturer’s protocol. […] DMSO (1%, Merck) and 250 μM H2O2 were used as a negative and positive control, respectively. NAC (500 μM, Sigma-Aldrich) was used as an ROS scavenger to confirm the ROS activity. After treatment with 20d and 19b, cells were incubated with H2DCFDA at 37 °C for 30 min. Subsequently, cells were harvested by trypsinization, rinsed with PBS, and stained with 7-AAD (Thermo Fisher). Finally, the stained cells were analyzed by flow cytometry using a Guava easyCyte 8 cell sorter (Merck Millipore) and FlowJo v10 software.
ROS analysis was performed by seeding the cells into cover glass-bottom 24-well plates for live-cell imaging. Cells were treated with compounds and stained as described above for flow cytometry. […]

[3] = test system: A-549 cells; assay: ROS level, H2DCFDA probe, flow cytometry, A-549; type: cell-based, human; conditions: A-549, IC50 concentration, 1-24 h
[4] = test system: HCT-116 cells; assay: Western blot protein expression in HCT-116 cells; type: cell-based, human
Protocol: HCT-116 cells were seeded into 60-mm Petri dishes at a density of 1.5 × 10^6 cells per dish and incubated overnight. […] After treatment, cells were lysed in Laemmli buffer with a protease and phosphatase inhibitors cocktail (Roche), followed by sonification The lysate was cleared by centrifuging at 16,000×g for 15 min at 12 °C. The supernatant was collected, and the extract was quantified for protein using the DC Protein Assay (Bio-Rad). Proteins were resolved by 10% or 12% sodium dodecyl sulfate–polyacrylamide gel electrophoresis and transferred to polyvinylidene difluoride membranes (Bio-Rad). Membranes were blocked using 5% (w/v) bovine serum albumin (Sigma-Aldrich) in 1× TBST (pH 7.4 and 0.1% Tween-20) for 1 h at room temperature and subsequently incubated overnight with primary antibodies at 4 °C. The blots were washed thrice with TBST and then incubated with horseradish peroxidase-conjugated antibodies for 1 h at room temperature. After washing, the membranes were evaluated for detecting the protein bands using enhanced chemiluminescence detection reagent kit (Thermo Fisher) and ChemiDoc XRS + Imaging System (Bio-Rad). The band intensity was measured using ImageLab 5.2 software (Bio-Rad).

[5] = test system: HCT-116 cells; assay: Wound healing assay; type: cell-based, human; conditions: HCT-116, 10 and 20 µM, 30 and 36 h of treatment
Protocol: A decrease in cell–cell adhesion correlates with tumor invasion and metastasis. Migration leads to spreading and metastasis of cancer cells and is thus associated with poor prognosis of many types of cancer. Moreover, studies indicate that metastasis is the major cause of death in patients with colorectal cancer (CRC)[58]. To investigate the effect of 20d on migration, HCT-116 cells were cultured and investigated by wound healing assay. The percentage of migration was monitored over time by capturing a series of images after every 6 h up to 36 h of treatment.
The antimigratory properties of 20d were investigated in HCT-116 cell line using wound healing assay. Briefly, cells were seeded and allowed to attach to the Ibidi-silicone insert on a cover glass-bottom 24-well plate for live-cell imaging. Next, the inserts were dislodged, and subsequently, cells were washed with a fresh medium and incubated with various concentrations of 20d in an imaging chamber (cellVivo incubation system, Olympus). For monitoring the migration of cells by live-cell microscopy with time-lapse photography, images were captured every 15 min for 36 h under 10× magnification using a fluorescence microscope (IX83 Inverted Microscope, Olympus) equipped with an XC50 phase-contrast digital color camera (Olympus). The distance between gaps was measured using ImageJ software.

In the case of `O=C(Nc1cccc(F)c1)OC1CCCc2c(-c3ccccc3)cc(=O)[nH]c21` (stereo not drawn) [Compound 20d, (2-oxo-4-phenyl-5,6,7,8-tetrahydroquinolin-8-yl) N-(3-fluorophenyl)carbamate], the “increase in the number of cells in the G0/G1 phase” value [1] is reported as under 14%, the “number of cells in the S-phase” value [1] is reported as “substantial decrease” and the “increase in ROS level compared to vehicle” value ([2]; HCT-116, IC50 concentration, 1-24 h) is reported as ~ 30%. The “cytotoxic effect after pretreatment with NAC” value ([2]; HCT-116, NAC 500 μM) was “NAC diminished the cytotoxic effect”, the “increase in ROS level compared to vehicle” value [3] was about 5% and the “expression of LAMP-1 protein” value ([4]; HCT-116) was “time-dependent increase”. The expression of vimentin ([4]; HCT-116) was “significantly altered”, the “level of phospho-AKT (Ser473)” value ([4]; HCT-116) was “significantly reduced” and the “level of phospho-mTOR (Ser2448)” value ([4]; HCT-116) was “significantly reduced”. The “expression of p-γ-H2AX” value ([4]; HCT-116, 24–72 h, immunoblot and immunofluorescence) was “significantly increased”, the “cyclin D1 expression” value ([4]; HCT-116, 72 h, vs DMSO) was “slight inhibition” and the β-catenin ([4]; HCT-116, even after 24 h) was “caused the cleavage of β-catenin”. The “levels of LC3-II” value ([4]; HCT-116, vs control) was “higher”, the “expression of p21” value ([4]; HCT-116, vs control, p < 0.001) was “markedly higher” and the “expression of p27” value ([4]; HCT-116, vs control, p < 0.001) was “markedly higher”. The “expression of p53” value ([4]; HCT-116, vs control, p < 0.001) was “markedly higher”, the expression of c-myc ([4]; HCT-116, vs vehicle) was “downregulated” and the inhibition of migration [5] was 30–50%.
